Here are results for five compounds from US4900744A, “Antihypercholesterolemic 4,5-diaryl-2-substituted thioimidazoles” (E. I. Du Pont de Nemours and Company, priority 1988, dated 1990).

In general, IC50 refers to the midpoint of a concentration-inhibition curve.

The test system of one experiment is J774 cells. Put plainly: Inhibition of Cholesterol Esterification in Mammalian Cells (macrophage-like cell line J774). The experiment is classed as cell-based. The settings on record: Mus musculus; murine macrophage-like cell line J774, +LDL (200 μg/ml), 14C-oleic acid incorporation into cholesteryl ester. Here is the method:
The esterification of cholesterol was determined in the murine macrophage-like cell line J774. J774 cells were placed in 60 mm dishes at a density of 200,000 cells per dish in 3.0 ml of Dulbecco's minimal essential medium (DMEM) containing 10% Fetal bovine serum. Cells were incubated at 37° C. in an atmosphere of 5% CO2 and 93% humidity. After 24 hr, the cells were washed with 2 ml of Hanks buffered saline and the media changed to 1.5 ml of DMEM containing 1% Cabosil® treated serum (CTS) to up-regulate LDL receptors. At 56 hr, fresh media that contained 1% CTS was added to the cells; in all but control dishes the media contained 200 μg LDL/ml to increase the intracellular concentration of cholesterol and promote esterification. At 72 hr, various inhibitors were added to the cells in DMSO (10 μl/ml maximum). At 74 hr, the cells were pulsed with 0.1 mM ^14 C-oleic acid (20,000 dpm/nmol) complexed with bovine serum albumin (BSA) to follow cholesteryl ester formation. The experiment was terminated at 76 hrs by washing the monolayers 3 times with 3 ml of Tris-buffered saline at 4° C. The lipids were extracted by incubating the monolayers with 1.5 ml of hexane: isopropanol (3:2, v/v) for 30 mins under gentle agitation. During this period, 20,000 dpm ^3 H-cholesteryl linoleate and 10 μg of cholesteryl oleate were added as an internal standard and carrier respectively. The organic solvent was removed and the cells were washed with an additional 1.0 ml of hexane: isopropanol which was combined with the original extract. The cells were allowed to dry overnight, digested with 1.5 ml of 0.2 N sodium hydroxide for 1 hr, and an aliquot of the solubilized protein used for protein determination using the Lowry method. The organic extract was taken to dryness, the residue resuspended in 100 μl of chloroform and the lipids separated on silica gel impregnated glass fiber plates using a hexane: diethyl ether: acetic acid (170:30:1, v/v/v) solvent system. The cholesteryl ester spot was visualized with iodine, cut out, and transferred to scintillation vials to determine the amount of radioactivity. The conversion of oleic acid to cholesteryl ester in the control averaged 0.54 nmol/hr/mg protein and was increased upon the addition of LDL to about 2.37 nmol/hr/mg protein. Inhibition of esterification by various compound was determined by dividing the specific activity (+LDL) in the presence of the inhibitor by the specific activity (+LDL) of the vehicle alone times 100% -100.

For experiment [1], the target named is acyl-CoA:cholesterol acyltransferase (ACAT). Put plainly: Inhibition of Acyl CoA:Cholesterol Acyltransferase (ACAT) in Hepatic Microsomes. The experiment is classed as biochemical, rat (male Sprague Dawley). The settings on record: rat hepatic microsomes, 75 μM 14C-oleoyl-CoA, pH 7.4, 37° C., 15 min preincubation, 10 min assay; read-out: IC50 In Vitro ACAT. Here is the method: The ability of the compounds of this invention to inhibit ACAT, the enzyme responsible for the intracellular synthesis of cholesteryl esters, was tested as follows. Male Sprague Dawley rats weighing 150-300 g were fed rat chow ad libitum. The animals were fasted for twenty-four hours prior to being sacrificed by decapitation. The livers were perfused in situ with 50 ml of cold 0.25 M sucrose, excised, and homogenized in three volumes of 0.1 M phosphate buffer, pH 7.4 containing 0.5 mM EDTA (ethylenediaminetetraacetic acid), 1.0 mM glutathione, 0.25 M sucrose and 20 μM leupeptin. Microsomes were obtained by differential centrifugation; the supernatant from an initial spin at 15,000×g. for 15 minutes (which removed cell debris and mitochondria) was centrifuged at 105,000×g. for 1 hr to pellet the microsomes. The microsomes were suspended in homogenization buffer reisolated by centrifugation and stored at -70° C. Microsomes were used within one month of preparation.
The control assay in a final volume of 200 μl consisted of 200 μg of microsomal protein, 75 μM ^14 C-oleoyl-CoA (10,000 dpm/nmol) in 0.1 M phosphate, pH 7.4 containing 1 mM glutathione. Compounds were added in 5-10 μl of DMSO (dimethyl sulfoxide) and additional controls were run with DMSO only. All components, except the radiolabeled oleoyl-CoA, were preincubated for 15 min at 37° C. prior to the initiation of the reaction by addition of radiolabeled oleoyl-CoA. The assay was terminated after 10 min by the addition of 500 μl of hexane: isopropanol (3:2, v/v). 20,000 dpm of ^3 H-cholesteryl oleate and 10 μg of unlabeled cholesteryl oleate and oleic acid were added as an internal standard and carriers, respectively. After allowing 10 min for lipid extraction, the samples were centrifuged at 1,000×g for 10 mins to separate the solvent layers. 200 μl of the top (hexane) layer containing the neutral lipids was spotted onto a Baker SI250-Pa silica gel TLC plate and the plate developed using a hexane: diethyl ether: acetic acid (170:30:1 v/v/v) mobile phase. The lipids were visualized by their interaction with iodine vapor and the cholesteryl ester spot was scraped into a scintillation vial and the radioactivity on the gel was determined by standard liquid scintillation spectrometry. The specific activity of ACAT in control microsomes averaged 260 pmol/min/mg microsomal protein. The % inhibition of the various compounds was the ACAT activity in the presence of the inhibitor divided by the activity of the control (vehicle alone) times 100%-100.

Structures are written as SMILES.

For the compound `CCOC(=O)CCCCCCCSc1nc(-c2ccccc2)c(-c2ccccc2)[nH]1` [Example 1, 8-(4,5-Diphenyl-1H-imidazol-2-ylthio)octanoic acid ethyl ester], the results for the IC50 (in the experiment on J774 cells; in experiment [1]) were 19 µM and 2 µM, respectively.
Taken in the same sequence, the figures for `CCOC(=O)CCCCCCCCCCSc1nc(-c2ccccc2)c(-c2ccccc2)[nH]1` [Example 2, 11-(4,5-Diphenyl-1H-imidazol-2-ylthio)undecanoic acid ethyl ester] were 17 µM and 1 µM.
In the case of `O=C(O)CCCCCCCCCCSc1nc(-c2ccccc2)c(-c2ccccc2)[nH]1` [Example 58, 11-(4,5-Diphenyl-1H-imidazol-2-ylthio)undecanoic acid], the IC50 worked out at 17 µM in the experiment on J774 cells and 1 µM in experiment [1].
Taken in the same sequence, the figures for `O=C(O)CCCCCCCSc1nc(-c2ccccc2)c(-c2ccccc2)[nH]1` [Example 57, 8-(4,5-Diphenyl-1H-imidazol-2-ylthio)octanoic acid] were 80 µM and 2 µM.
Taken in the same sequence, the figures for `O=C(O)CCCCCCCOc1nc(-c2ccccc2)c(-c2ccccc2)n1-c1ccccc1` [Octimibate, reference compound] were 78 µM and 23 µM.
